The source of these data is patent publication US7029863B2, “Cell culture system for determining the cholesterol efflux potential for serum” (The Children's Hospital of Philadelphia, priority 2001, dated 2006).

Common to all, as to assay type: cell-based
The test system of test [1] is W138VA13 human embryonic lung fibroblasts. The test can be described thus: Cell cholesterol efflux to supplemented human serum, untreated W138VA13 fibroblasts. The settings on record: human serum supplemented with increasing levels of the substance; 4 hour incubation; low SR-BI and ABCA1 expression; FIG. 1C. The procedure:
FIG. 1C is a graph of the percentage of efflux of cell cholesterol after a four hour incubation period of W138VA13 human embryonic lung fibroblasts with serum supplemented with HDL3 and serum supplemented with Apo AI. Numbers on X axis represent the fold increase of HDL3 or Apo AI with the X axis of 1 being the unsupplemented serum.
(§1) FIGS. 1A–1F illustrate that the expression of SR-BI and ABCA1 independently in cultured cells can be used to detect cell cholesterol efflux to human sera with different levels of apolipoprotein AI, high density lipoprotein (HDL) or high density lipoprotein3 (HDL3). […] The control and supplemented serum samples were then diluted in tissue culture medium and incubated with the indicated cell systems; the efflux of cell cholesterol was measured after a 4 hour incubation period.
FIG. 1C is a graph of the percentage of efflux of cell cholesterol after a four hour incubation period of W138VA13 human embryonic lung fibroblasts with serum supplemented with HDL3 and serum supplemented with Apo AI. FIG. 1C illustrates that W138VA13 human embryonic lung fibroblasts have low expression levels of both proteins and cell cholesterol efflux is unresponsive to either type of serum supplementation.

Test [2] deals with W138VA13 human embryonic lung fibroblasts transfected with SR-BI with ABCA1 upregulated. The test can be described thus: Cell cholesterol efflux to supplemented human serum, W138VA13 fibroblasts with SR-BI transfected and ABCA1 upregulated. To be noted: human serum supplemented with increasing levels of the substance; 4 hour incubation; FIG. 1F. As to the method: (§2) Numbers on X axis represent the fold increase of HDL3 or Apo AI with the X axis of 1 being the unsupplemented serum.
as §1

Test [3] has as its system J774 mouse macrophages treated with cAMP to upregulate the expression of ABCA1. The test can be described thus: Cell cholesterol efflux to supplemented human serum, J774 macrophages with ABCA1 upregulated by cAMP. The settings on record: human serum supplemented with increasing levels of the substance; 4 hour incubation; FIG. 1B. As to the method:
FIG. 1B is a graph of the percentage of efflux of cell cholesterol after a four hour incubation period of J774 mouse macrophages treated with cAMP to upregulate the expression of ABCA1 with serum supplemented with HDL3 and serum supplemented with Apo AI. Numbers on X axis represent the fold increase of HDL3 or Apo AI with the X axis of 1 being the unsupplemented serum.
For example, in one embodiment of the present invention, an assay to quantitate the contribution of ABCA1 to cellular cholesterol efflux uses a sample of cells, such as transformed mouse macrophages which are grown in monolayers and prelabeled with ^3H-cholesterol. […] The release of the radiolabeled cholesterol is determined after an appropriate incubation time ranging from 1 to 12 hours. The ABCA1 contribution to efflux is determined by subtracting the efflux obtained in ABCA1 negative cultures from that obtained from the ABCA1 positive cultures.
FIGS. 1A–1F illustrate that the expression of SR-BI and ABCA1 independently in cultured cells can be used to detect cell cholesterol efflux to human sera with different levels of apolipoprotein AI, high density lipoprotein (HDL) or high density lipoprotein3 (HDL3). […] The control and supplemented serum samples were then diluted in tissue culture medium and incubated with the indicated cell systems; the efflux of cell cholesterol was measured after a 4 hour incubation period. […]

Test [4] has as its system W138VA13 human embryonic lung fibroblasts pretreated with 9-cis retanoic acid (9CRA) and 22 hydroxycholesterol to upregulated ABCA1. The test can be described thus: Cell cholesterol efflux to supplemented human serum, W138VA13 fibroblasts with ABCA1 upregulated. The settings on record: human serum supplemented with increasing levels of the substance; 4 hour incubation; FIG. 1E. As to the method:
as §2, §1

Regarding “Apo AI: apolipoprotein AI added to human serum in increasing levels”, the entries for the “percentage of efflux of cell cholesterol” value in test [1], in test [3] and in test [4] were “unresponsive”, “enhanced cholesterol efflux” and “enhanced”, respectively. Also, in test [2], the “efflux of cell cholesterol” value is “enhanced efflux”.
